{"source": "PubChem BioAssay (NCI)", "test_in_all_cases": "NCI tumour cell line growth inhibition, 48 h", "key": {"[1]": {"system": "SK-MEL-2 melanoma"}, "[2]": {"system": "NCI/ADR-RES ovarian"}, "[3]": {"system": "K-562 leukemia"}, "[4]": {"system": "HOP-62 NSCLC"}, "[5]": {"system": "HS 578T breast"}, "[6]": {"system": "OVCAR-8 ovarian"}, "[7]": {"system": "CCRF-CEM leukemia"}, "[8]": {"system": "UACC-257 melanoma"}, "[9]": {"system": "OVCAR-5 ovarian"}, "[10]": {"system": "M14 melanoma"}, "[11]": {"system": "NCI-H522 lung"}, "[12]": {"system": "SW-620 colon"}, "[13]": {"system": "HCT-15 colon"}, "[14]": {"system": "DU-145 prostate"}, "[15]": {"system": "KM12 colon"}, "[16]": {"system": "NCI-H226 lung"}, "[17]": {"system": "EKVX NSCLC"}, "[18]": {"system": "UACC-62 melanoma"}, "[19]": {"system": "A498 renal"}, "[20]": {"system": "SR leukemia"}, "[21]": {"system": "MOLT-4 leukemia"}, "[22]": {"system": "MALME-3M melanoma"}, "[23]": {"system": "SNB-19 CNS"}, "[24]": {"system": "SK-MEL-28 melanoma"}, "[25]": {"system": "MDA-MB-231 breast"}, "[26]": {"system": "HT29 colon"}, "[27]": {"system": "SK-MEL-5 melanoma"}, "[28]": {"system": "LOX IMVI melanoma"}}, "note": "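A five-concentration, 48-hour dose response in 96-well plates underlies each endpoint, interpolated linearly between surrounding concentrations. GI50: concentration for 50% inhibition of growth. Definition used: TGI = concentration required for complete inhibition of growth.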"}
{"smiles": "Clc1ccc(Nc2nnc(CNc3ccccc3)c3ccccc23)cc1", "values": [{"measurement": "GI50", "setting": "[1]", "value": 2.16, "unit": "µM"}, {"measurement": "TGI", "setting": "[1]", "value": 5.83, "unit": "µM"}, {"measurement": "GI50", "setting": "[2]", "value": 4.12, "unit": "µM"}, {"measurement": "TGI", "setting": "[2]", "value": 17, "unit": "µM"}, {"measurement": "GI50", "setting": "[3]", "value": 1.71, "unit": "µM"}, {"measurement": "TGI", "setting": "[3]", "value": 14.5, "unit": "µM"}, {"measurement": "GI50", "setting": "[4]", "value": 2.86, "unit": "µM"}, {"measurement": "TGI", "setting": "[4]", "value": 8.84, "unit": "µM"}, {"measurement": "GI50", "setting": "[5]", "value": 2.95, "unit": "µM"}, {"measurement": "TGI", "setting": "[5]", "value": 12.9, "unit": "µM"}, {"measurement": "GI50", "setting": "[6]", "value": 4.63, "unit": "µM"}, {"measurement": "TGI", "setting": "[6]", "value": 16.8, "unit": "µM"}, {"measurement": "GI50", "setting": "[7]", "value": 3.53, "unit": "µM"}, {"measurement": "TGI", "setting": "[7]", "value": 17.6, "unit": "µM"}, {"measurement": "GI50", "setting": "[8]", "value": 2.74, "unit": "µM"}, {"measurement": "TGI", "setting": "[8]", "value": 6.87, "unit": "µM"}, {"measurement": "GI50", "setting": "[9]", "value": 4.92, "unit": "µM"}, {"measurement": "TGI", "setting": "[9]", "value": "> 25", "unit": "µM"}, {"measurement": "GI50", "setting": "[10]", "value": 1.74, "unit": "µM"}, {"measurement": "TGI", "setting": "[10]", "value": 6.65, "unit": "µM"}, {"measurement": "GI50", "setting": "[11]", "value": 0.684, "unit": "µM"}, {"measurement": "TGI", "setting": "[11]", "value": 4.62, "unit": "µM"}, {"measurement": "GI50", "setting": "[12]", "value": 3.84, "unit": "µM"}, {"measurement": "TGI", "setting": "[12]", "value": 11.1, "unit": "µM"}, {"measurement": "GI50", "setting": "[13]", "value": 2.99, "unit": "µM"}, {"measurement": "TGI", "setting": "[13]", "value": 9.39, "unit": "µM"}, {"measurement": "GI50", "setting": "[14]", "value": 4.55, "unit": "µM"}, {"measurement": "TGI", "setting": "[14]", "value": "> 25", "unit": "µM"}, {"measurement": "GI50", "setting": "[15]", "value": 3.05, "unit": "µM"}, {"measurement": "TGI", "setting": "[15]", "value": 9.92, "unit": "µM"}, {"measurement": "GI50", "setting": "[16]", "value": 2.52, "unit": "µM"}, {"measurement": "TGI", "setting": "[16]", "value": 7.98, "unit": "µM"}, {"measurement": "GI50", "setting": "[17]", "value": 1.61, "unit": "µM"}, {"measurement": "TGI", "setting": "[17]", "value": 15, "unit": "µM"}, {"measurement": "GI50", "setting": "[18]", "value": 1.25, "unit": "µM"}, {"measurement": "TGI", "setting": "[18]", "value": 5.7, "unit": "µM"}, {"measurement": "GI50", "setting": "[19]", "value": 1.45, "unit": "µM"}, {"measurement": "TGI", "setting": "[19]", "value": 6.06, "unit": "µM"}, {"measurement": "GI50", "setting": "[20]", "value": 1.75, "unit": "µM"}, {"measurement": "TGI", "setting": "[20]", "value": 12.3, "unit": "µM"}, {"measurement": "GI50", "setting": "[21]", "value": 1.71, "unit": "µM"}, {"measurement": "TGI", "setting": "[21]", "value": 8.74, "unit": "µM"}, {"measurement": "GI50", "setting": "[22]", "value": 2.66, "unit": "µM"}, {"measurement": "TGI", "setting": "[22]", "value": 9.92, "unit": "µM"}, {"measurement": "GI50", "setting": "[23]", "value": 4.71, "unit": "µM"}, {"measurement": "TGI", "setting": "[23]", "value": 22.7, "unit": "µM"}, {"measurement": "GI50", "setting": "[24]", "value": 3.67, "unit": "µM"}, {"measurement": "TGI", "setting": "[24]", "value": 10.5, "unit": "µM"}, {"measurement": "GI50", "setting": "[25]", "value": 1.95, "unit": "µM"}, {"measurement": "TGI", "setting": "[25]", "value": 8.73, "unit": "µM"}, {"measurement": "GI50", "setting": "[26]", "value": 1.46, "unit": "µM"}, {"measurement": "TGI", "setting": "[26]", "value": 6.36, "unit": "µM"}, {"measurement": "GI50", "setting": "[27]", "value": 2.08, "unit": "µM"}, {"measurement": "TGI", "setting": "[27]", "value": 5.27, "unit": "µM"}, {"measurement": "GI50", "setting": "[28]", "value": 1.57, "unit": "µM"}, {"measurement": "TGI", "setting": "[28]", "value": 4.97, "unit": "µM"}]}
